We go through 2 compounds from US10150743B2, “Carboxylic acid compounds” (priority 2012, dated 2018).

The target of assay [1] is human TLR8 (Homo sapiens (Human), UniProt Q9NR97). Kind of assay: Human TLR8 assay (TLR8/NF-kB/SEAPorter HEK 293 Cell Line). Format: cell-based. As to conditions: SEAP induction, overnight incubation at 37° C., 0.1% DMSO; read-out: TLR8 pEC50 (converted). The source says: TLR8/NF-kB/SEAPorter™ HEK 293 Cell Line (Imgenex Corporation) is a stably co-transfected cell line which expresses full-length human TLR8 and the secreted alkaline phosphatase (SEAP) reporter gene under the transcriptional control of an NF-κB response element. TLR8 expression in this cell line has been tested by flow cytometry. Transfectants with stable expression were selected using the antibiotic blasticidin and geneticin. TLR signaling leads to the translocation of NF-κB and activation of the promoter results in expression of the SEAP gene. TLR8-specific activation was assessed by determining the level of SEAP produced following overnight incubation of the cells at 37° C. with the standard compound in the presence of 0.1% (v/v) dimethylsulfoxide (DMSO). Concentration dependent induction of SEAP production by compounds was expressed as the concentration of compound which produced half of the maximal level of SEAP induction for that compound (EC50).

Assay [2] addresses human TLR7 (Homo sapiens (Human), UniProt Q9NYK1). Kind of assay: Human TLR7 assay (SEAP reporter in HEK293). As to conditions: SEAP induction, overnight incubation at 37° C., 0.1% DMSO; read-out: TLR7 (pEC50) (converted). Format: cell-based. The source says:
Recombinant human TLR7 was stably expressed in a HEK293 cell line already stably expressing the pNiFty2-SEAP reporter plasmid; integration of the reporter gene was maintained by selection with the antibiotic zeocin. The most common variant sequence of human TLR7 (represented by the EMBL sequence AF240467) was cloned into the mammalian cell expression vector pUNO and transfected into this reporter cell-line. Transfectants with stable expression were selected using the antibiotic blasticidin. In this reporter cell-line, expression of secreted alkaline phosphatase (SEAP) is controlled by an NFkB/ELAM-1 composite promoter comprising five NFkB sites combined with the proximal ELAM-1 promoter. TLR signaling leads to the translocation of NFkB and activation of the promoter results in expression of the SEAP gene. TLR7-specific activation was assessed by determining the level of SEAP produced following overnight incubation of the cells at 37° C. with the standard compound in the presence of 0.1% (v/v) dimethylsulfoxide (DMSO). Concentration dependent induction of SEAP production by compounds was expressed as the concentration of compound which produced half of the maximal level of SEAP induction for that compound (EC50).

Assay [3] deals with hERG potassium channel (Homo sapiens (Human), UniProt Q12809). In words: hERG Analysis - Method 2 (QPATCH HT, CHO-hERG cells). Format: cell-based. As to conditions: half-maximal inhibition concentration, 22±2° C. On the procedure: The hERG potassium current was measured in a hERG-stably-expressing Chinese hamster ovary K1 (CHO) cells. The experiments were performed using an automated planar patch-clamp system QPATCH HT (Sophion Bioscience A/S). The application of pressure for forming gigaseals and whole-cell patch clamp configuration were established using the QPATCH assay software. Patch-clamp experiments were performed in voltage-clamp mode and whole-cell currents were recorded from individual cells. The following stimulation protocol was applied to investigate the effects of compounds on hERG potassium channel: The membrane potential was held at −80 mV and repetitively (every 15 s) depolarized to +20 mV for 5 s after the pulse to −50 mV for 20 ms served to define the baseline, followed by repolarizing step to −50 mV for 5 s to evaluate of the tail current amplitude. Experiments were conducted at room temperature (22±2° C.).
Effects of compounds were determined from cumulative applications of increasing 4 concentrations and calculated as percent of blocked current. The data points were fitted with Hill equation to calculate half-maximal inhibition concentrations. The test solution includes: Extracellular solution (mM): 2 mM of CaCl2, 1 mM of MgCl2, 10 mM of HEPES, 4 mM of KCl, 145 mM of NaCl, and 10 mM of Glucose; and Intracellular solution (mM): 5.4 mM of CaCl2, 1.8 mM of MgCl2, 10 mM of HEPES, 31 mM of KOH, 10 mM of EGTA, 120 mM of KCl, and 4 mM of ATP.
On the technique in general: Block of hERG is tested as a sign of cardiac risk.

The test system of assay [4] is CT26 mouse tumour cells. In words: Survival studies in CT26, a murine syngeneic colon carcinoma tumour model. Format: in vivo. As to conditions: Balb/C mice; RT 2Gy x5 plus 5 mg/kg once a week i.v.; vs control or RT; FIG. 13. On the procedure: Experiments were conducted on female mice (Balb/C genotype, at least 5 weeks old). CT26 mouse tumour cells (CRL-2638) were purchased from ATCC. CT26 mouse tumour cells (1×10^6) were implanted subcutaneously in the flank of mice on day 0. Mice in radiotherapy alone (RT) group and combination group were anesthetized and received radiation therapy (2Gy) at days 7, 8, 9, 10, and 11. Mice in combination group were also treated with a compound of Example 3 (30 mg/kg once a week) administered orally (p.o.) or Example 4 (5 mg/kg once a week) administered intravenously (i. v.) on days 7, 14, 22, and 27. Tumour volumes were assessed at least twice weekly by bilateral vernier caliper measurements. Survival period was determined by the time taken for tumours to reach 4 times the volume at the time of treatment.

Assay [5] concerns Renca mouse tumour cells. Kind of assay: Tumour growth studies in Renca, a murine syngeneic renal carcinoma tumour model. Format: in vivo. As to conditions: Balb/C mice, 3 mg/kg once a week p.o. on days 1, 8, 15; vs 0.5% methylcellulose; FIG. 10. On the procedure:
Experiments were conducted on female mice (Balb/C genotype, at least 5 weeks old). Renca mouse tumour cells (Cancer Chemother Pharmacol. 1995; 36 (1): 7-12) were kindly provided by Dr. T. Fujioka at Department of Urology, Iwate Medical University School of Medicine. Renca mouse tumour cells (5×10^4) were implanted subcutaneously in the flank of mice on day 0. Mice were treated with either drug vehicle (0.5% methylcellulose), the compound of Example 3 (0.3 mg/kg once a week) or the compound of Example 4 (3 mg/kg once a week) administered orally (p. o.) on days 1, 8, and 15. Tumour volumes were assessed at least twice weekly by bilateral vernier caliper measurements.
Tumour growth inhibition from the start of treatment was assessed by comparison of the differences in tumour growth rate between control and the compound of Example 3 treated groups, as shown in FIG. 9.
Tumour growth inhibition from the start of treatment was assessed by comparison of the differences in tumour growth rate between control and the compound of the Example 4 treated groups, as shown in FIG. 10.

The target of assay [6] is hERG ion channel (Homo sapiens (Human), UniProt Q12809). In words: hERG Analysis - Method 1 (IONWORKS HT, CHO-hERG cells). Format: cell-based. As to conditions: ~21° C. As for the experimental part: The hERG-expressing Chinese hamster ovary K1 (CHO) cells described by (Persson, Carlsson, Duker, & Jacobson, 2005) were grown to semi-confluence at 37° C. in a humidified environment (5% CO2) in F-12 Ham medium containing L-glutamine, 10% foetal calf serum (FCS) and 0.6 mg/mL hygromycin (all available from Sigma-Aldrich). Prior to use, the monolayer was washed using a pre-warmed (37° C.) 3 mL aliquot of Versene 1:5,000 (Invitrogen) After aspiration of this solution the flask was incubated at 37° C. in an incubator with a further 2 mL of Versene 1:5,000 for a period of 6 minutes. Cells were then detached from the bottom of the flask by gentle tapping and 10 mL of Dulbecco's Phosphate-Buffered Saline containing calcium (0.9 mM) and magnesium (0.5 mM) (PBS; Invitrogen) was then added to the flask and aspirated into a 15 mL centrifuge tube prior to centrifugation (50 g, for 4 mins). The resulting supernatant was discarded and the pellet gently re-suspended in 3 mL of PBS. A 0.5 mL aliquot of cell suspension was removed and the number of viable cells (based on trypan blue exclusion) was determined in an automated reader (Cedex; Innovatis) so that the cell re-suspension volume can be adjusted with PBS to give the desired final cell concentration. It is the cell concentration at this point in the assay that is quoted when referring to this parameter. CHO-Kv1.5 cells, which were used to adjust the voltage offset on IONWORKS™ HT, were maintained and prepared for use in the same way.
The principles and operation of this device have been described by (Schroeder, Neagle, Trezise, & Worley, 2003). Briefly, the technology is based on a 384-well plate (PATCHPLATE™) in which a recording was attempted in each well by using suction to position and hold a cell on a small hole separating two isolated fluid chambers. Once sealing had taken place, the solution on the underside of the PATCHPLATE™ was changed to one containing amphotericin B. This permeablises the patch of cell membrane covering the hole in each well and, in effect, allowed a perforated, whole-cell patch clamp recording to be made.
A β-test IONWORKS™ HT from Essen Instrument was used. […] (˜21° C.), as follows. The reservoir in the “Buffer” position was loaded with 4 mL of PBS and that in the “Cells” position with the CHO-hERG cell suspension described above. A 96-well plate (V-bottom, Greiner Bio-one) containing the compounds to be tested (at 3-fold above their final test concentration) was placed in the “Plate 1” position and a PATCHPLATE™ was clamped into the PATCHPLATE™ station. […]

Sequence of human TLR8 (Q9NR97 27-1041): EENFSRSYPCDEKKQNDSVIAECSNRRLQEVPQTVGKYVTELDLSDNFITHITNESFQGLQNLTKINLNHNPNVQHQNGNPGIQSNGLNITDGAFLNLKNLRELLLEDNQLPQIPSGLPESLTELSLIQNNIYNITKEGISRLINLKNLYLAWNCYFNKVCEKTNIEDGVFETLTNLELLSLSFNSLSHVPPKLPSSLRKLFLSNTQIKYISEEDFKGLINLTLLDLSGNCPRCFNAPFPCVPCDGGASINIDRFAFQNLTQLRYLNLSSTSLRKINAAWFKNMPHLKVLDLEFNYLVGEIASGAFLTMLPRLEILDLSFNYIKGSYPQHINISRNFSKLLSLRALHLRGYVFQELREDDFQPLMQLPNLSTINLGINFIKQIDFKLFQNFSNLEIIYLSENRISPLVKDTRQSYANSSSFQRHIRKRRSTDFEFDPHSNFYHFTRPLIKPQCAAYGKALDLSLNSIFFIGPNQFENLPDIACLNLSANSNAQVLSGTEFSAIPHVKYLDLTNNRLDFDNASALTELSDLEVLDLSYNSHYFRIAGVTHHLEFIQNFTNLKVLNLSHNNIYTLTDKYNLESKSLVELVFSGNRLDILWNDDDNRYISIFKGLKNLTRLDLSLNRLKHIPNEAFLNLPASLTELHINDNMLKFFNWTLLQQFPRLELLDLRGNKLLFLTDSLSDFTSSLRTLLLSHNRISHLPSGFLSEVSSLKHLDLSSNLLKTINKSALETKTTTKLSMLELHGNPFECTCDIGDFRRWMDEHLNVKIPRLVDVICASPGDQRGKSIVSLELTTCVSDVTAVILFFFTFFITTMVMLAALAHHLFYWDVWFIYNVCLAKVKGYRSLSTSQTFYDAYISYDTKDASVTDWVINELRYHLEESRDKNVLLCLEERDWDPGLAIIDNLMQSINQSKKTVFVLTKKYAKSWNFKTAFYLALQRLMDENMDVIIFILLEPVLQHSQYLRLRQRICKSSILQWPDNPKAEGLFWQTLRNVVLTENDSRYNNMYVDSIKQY
Sequence of hERG potassium channel (Q12809 whole entry): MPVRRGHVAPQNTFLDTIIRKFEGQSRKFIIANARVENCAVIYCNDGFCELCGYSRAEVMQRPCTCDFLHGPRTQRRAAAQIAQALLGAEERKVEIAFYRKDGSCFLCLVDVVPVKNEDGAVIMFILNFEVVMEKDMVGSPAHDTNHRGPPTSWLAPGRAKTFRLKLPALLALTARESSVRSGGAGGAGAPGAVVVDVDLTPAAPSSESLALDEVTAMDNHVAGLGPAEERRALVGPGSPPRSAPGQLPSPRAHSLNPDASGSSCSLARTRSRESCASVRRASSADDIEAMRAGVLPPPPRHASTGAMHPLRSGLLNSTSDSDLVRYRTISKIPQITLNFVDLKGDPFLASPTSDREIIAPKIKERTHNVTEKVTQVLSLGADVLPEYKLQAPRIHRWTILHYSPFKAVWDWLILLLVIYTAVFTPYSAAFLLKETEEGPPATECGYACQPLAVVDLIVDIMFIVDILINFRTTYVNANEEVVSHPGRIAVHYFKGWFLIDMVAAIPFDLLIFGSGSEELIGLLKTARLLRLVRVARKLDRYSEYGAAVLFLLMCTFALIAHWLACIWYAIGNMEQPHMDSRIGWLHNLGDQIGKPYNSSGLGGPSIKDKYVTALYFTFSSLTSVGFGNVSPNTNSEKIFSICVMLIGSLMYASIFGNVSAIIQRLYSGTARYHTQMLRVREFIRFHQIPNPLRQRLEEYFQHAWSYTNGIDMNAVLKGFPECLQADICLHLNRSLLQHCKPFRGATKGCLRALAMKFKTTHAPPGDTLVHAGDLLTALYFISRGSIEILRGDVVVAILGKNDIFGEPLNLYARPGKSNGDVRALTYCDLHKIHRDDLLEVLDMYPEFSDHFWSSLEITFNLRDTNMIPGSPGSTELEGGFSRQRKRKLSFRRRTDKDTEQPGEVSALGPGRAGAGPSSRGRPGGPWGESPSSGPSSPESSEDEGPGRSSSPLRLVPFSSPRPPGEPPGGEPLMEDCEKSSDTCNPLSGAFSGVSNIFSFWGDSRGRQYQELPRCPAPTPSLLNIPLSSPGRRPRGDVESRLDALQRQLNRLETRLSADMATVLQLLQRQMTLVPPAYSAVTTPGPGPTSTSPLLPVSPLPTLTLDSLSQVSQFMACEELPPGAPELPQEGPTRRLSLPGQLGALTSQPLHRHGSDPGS
Sequence of human TLR7 (Q9NYK1 27-1049): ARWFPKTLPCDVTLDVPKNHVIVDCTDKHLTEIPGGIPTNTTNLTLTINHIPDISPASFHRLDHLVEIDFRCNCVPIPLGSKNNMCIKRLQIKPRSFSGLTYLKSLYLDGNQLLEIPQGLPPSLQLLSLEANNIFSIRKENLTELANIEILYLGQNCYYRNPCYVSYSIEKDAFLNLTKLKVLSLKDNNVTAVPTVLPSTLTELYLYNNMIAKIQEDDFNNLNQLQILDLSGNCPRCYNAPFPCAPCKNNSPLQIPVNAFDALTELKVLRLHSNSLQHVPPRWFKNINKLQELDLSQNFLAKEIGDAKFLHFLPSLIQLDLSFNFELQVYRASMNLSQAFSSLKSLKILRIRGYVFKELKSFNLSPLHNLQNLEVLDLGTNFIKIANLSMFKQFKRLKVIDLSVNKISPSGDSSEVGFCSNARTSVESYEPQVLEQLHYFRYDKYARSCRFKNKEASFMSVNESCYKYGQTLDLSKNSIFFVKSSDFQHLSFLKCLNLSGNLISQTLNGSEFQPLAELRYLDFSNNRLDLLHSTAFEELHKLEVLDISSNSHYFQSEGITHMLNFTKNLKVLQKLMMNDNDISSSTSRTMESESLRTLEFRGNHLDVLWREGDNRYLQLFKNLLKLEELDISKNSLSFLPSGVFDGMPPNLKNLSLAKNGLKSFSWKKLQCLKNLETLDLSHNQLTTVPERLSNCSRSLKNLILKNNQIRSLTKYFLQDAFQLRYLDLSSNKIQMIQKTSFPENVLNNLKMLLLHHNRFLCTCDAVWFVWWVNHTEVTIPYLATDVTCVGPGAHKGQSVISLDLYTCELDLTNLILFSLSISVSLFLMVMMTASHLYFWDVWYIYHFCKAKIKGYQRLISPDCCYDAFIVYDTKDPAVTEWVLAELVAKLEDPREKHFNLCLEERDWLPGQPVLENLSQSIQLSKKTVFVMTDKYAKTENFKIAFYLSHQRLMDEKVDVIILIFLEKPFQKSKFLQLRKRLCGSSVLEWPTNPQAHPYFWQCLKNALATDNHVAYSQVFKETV
Sequence of hERG ion channel (Q12809 whole entry): as the sequence (Q12809 whole entry) above

For orientation: IC50 means the concentration needed to halve the response being measured. Low readings indicate higher potency, high ones lower potency. Turning to `CCC[C@@H](CCO)Nc1nc(N)nc(C)c1Cc1ccc(CN(CC(=O)O)CC(F)(F)F)cc1OC` [Example 4, (S)-2-((4-((2-amino-4-(1-hydroxyhexan-3-ylamino)-6-methylpyrimidin-5-yl)methyl)-3-methoxybenzyl)(2,2,2-trifluoroethyl)amino)acetic acid], the EC50 in assay [1] was greater than 10 µM; in assay [2] it was 0.1 µM. The compound also came in with an IC50 in assay [3] greater than 10 µM. For the same compound, the “Survival period (time for tumours to reach 4 times the volume at treatment)” value in assay [4] is recorded as “survived significantly longer”. Moreover, in assay [5], the Tumour growth inhibition entry is given as “inhibited tumour growth”.
On to `CCC[C@@H](CCO)Nc1nc(N)nc(C)c1Cc1ccc(CN(CC)CC(=O)O)cc1OC` [Example 1, (S)-2-((4-((2-amino-4-(1-hydroxyhexan-3-ylamino)-6-methylpyrimidin-5-yl)methyl)-3-methoxybenzyl)(ethyl)amino)acetic acid], for which the IC50 in assay [6] was greater than 33 µM; in assay [3] it was greater than 10 µM. The values for the EC50 in assay [1] and in assay [2] were greater than 10 µM and 0.158 µM, respectively.
